Results: US20260327250A1, “3-ETHYLAMINO-INDOLE DIMERS AS SEROTONERGIC AGENTS USEFUL FOR THE TREATMENT OF DISORDERS RELATED THERETO” (MINDSET PHARMA INC., priority 2022, published 2026)
Counter-ions that a name gives are not always drawn.

Assays:
[1] = molecular target: T1, human 5-hydroxytryptamine receptor 1A (5-HT1A) (Homo sapiens, UniProt P08908); experiment: Human 5-HT1A functional FLIPR assay (agonist mode); type: cell-based; settings: footnote: Curve fitting with activation (%) @ 10 mM with RFU
T1 construct: expressed in transfected cells; host or cells: HTR1A&Ga15-CHO
T1 sequence (P08908 1-422): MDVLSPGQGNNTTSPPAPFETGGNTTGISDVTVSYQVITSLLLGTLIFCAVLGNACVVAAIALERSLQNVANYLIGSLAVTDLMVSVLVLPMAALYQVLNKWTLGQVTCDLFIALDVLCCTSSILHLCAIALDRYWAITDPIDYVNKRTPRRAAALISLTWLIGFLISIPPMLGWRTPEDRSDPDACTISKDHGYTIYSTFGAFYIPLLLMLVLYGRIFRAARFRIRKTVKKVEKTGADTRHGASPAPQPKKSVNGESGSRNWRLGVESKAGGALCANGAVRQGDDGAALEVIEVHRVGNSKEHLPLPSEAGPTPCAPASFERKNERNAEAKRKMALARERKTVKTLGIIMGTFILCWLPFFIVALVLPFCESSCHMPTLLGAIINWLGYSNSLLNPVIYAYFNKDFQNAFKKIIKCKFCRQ
Method: The potential excitatory effects of compounds targeting on 5-hydroxytryptamine receptor 1A under agonist mode was assessed.
HTR1A&Ga15-CHO cells were cultured in DMEM/F12 medium containing 10% dialyzed FBS, 1× penicillin-streptomycin and 600 μg/mL Hygromycin B. The cells were passaged about three times a week, maintained between […] confluence.
• 1. The cell culture medium (DMEM/F12 medium containing 10% dialyzed FBS, 1× penicillin-streptomycin and 600 μg/mL Hygromycin B), TrypLE™ Express and DPBS was warmed to R.T. in advance. • 2. The cell culture medium was removed from the flask. The cells were washed with DPBS. • 3. 1 mL TrypLE™ Express was added to the flask, mixed well by gentle shaking and then cells were incubated at 37° C. for a few minutes. • 4. The cells morphological change was checked under microscope, and the digestion stopped by adding 2 mL cell culture medium to the flask when most of cells turned to round. • 5. The cell suspension was transferred into a 15 mL centrifuge tube, and then centrifuged at 1,200 rpm for 5 minutes. • 6. The supernatant was removed. The cell pellet was resuspended with 2 mL cell culture medium. • 7. The cell density was counted using cell counter. Only cells with >85% viability were used for the assay. • 8. The cells were diluted to 4×10^5/mL with cell culture medium. • 9. 30 μL/well cell suspensions were added into a 384-well cell plate (The cell density was 12,000 cells/well). • 10. The cell plate was incubated overnight at 37° C., 5% (v/v) CO2. 3.3 Cell handling • 1. On the day of experiments, culture medium was removed from the cell plate. • 2. 10 μL of assay buffer (20 mM HEPES, in 1× HBSS, pH 7.4) was added to each well of the cell plate. • 3. 2× dye solution was prepared following the manufacture's instruction of the FLIPR® Calcium 6 assay kit: • i. The dye was diluted with assay buffer. • ii. Probenecid was added to the final concentration of 5 mM. • iii. Vigorously vortex for 1-2 minutes, and pH was adjusted to 7.4. • 4. 10 μL of 2× dye solution was added to each well of the cell plate. • 5. The cell plate was placed on plate shaker, followed by shaking at 600 rpm for 2 minutes. • 6. The plate at 37° C. was incubated for 2 hours followed by an additional 15-minute incubation at 25° C.
• 1. Serotonin was prepared to the concentration of 10 mM with DMSO, 3-folds serial dilutions were performed with DMSO. • 2. The test compounds were prepared to the concentration of 10 mM with DMSO, 3-folds serial dilutions were performed with DMSO. • 3. The compounds were added to a 384-well compound source plate. • 4. 90 nL/well of serial diluted compounds were transferred from source plate to a 384-well compound plate by using an Echo. • 5. 30 μL/well of assay buffer was added to the compound plate. • 6. The plate-on-plate shaker was mixed for 2 minutes.
• 1. After the cells had incubated with dye solution, the cell plate, compound plate containing 3×compounds and FLIPR tips were placed into FLIPR. • 2. 10 μL of 3×compounds were transferred from the compound plate to the cell plate by FLIPR. • 3. The plate was read for 160 sec with 1 sec interval to obtain the data of agonist mode.
• 1. The normalized fluorescence reading (RFU) was calculated as shown below, wherein Fmax and Fmin stand for maximum and minimum of calcium signal during defined time window:
2. EC50 was calculated by fitting RFU against log of compound concentrations with Hill equation using XLfit.

[2] = in vitro; settings: human, microsomes
Method: (§1) The concentrations of parent compounds in reaction systems were evaluated by LC-MS/MS for estimating the stability in pooled human, male rat and male mouse liver microsomes. The in vitro intrinsic clearances of test compounds were determined as well. Protocol
(§2) A master solution in the “Incubation Plate” containing phosphate buffer, ultra-pure H2O, MgCl2 solution and liver microsomes was made according to Table 6. The mixture was pre-warmed at 37° C. water bath for 5 minutes.
(§3) The reaction was started with the addition of 4 μL of 200 μM exemplary test compounds of the application or control compounds to each master solution to get the final concentration of 2 μM. This study was performed in duplicate.
(§4) Aliquots of 50 μL were taken from the reaction solution at 0, 15, 30, 45 and 60 minutes. The reaction solutions were stopped by the addition of 4 volumes of cold methanol with IS (100 nM alprazolam, 200 nM imipramine, 200 nM labetalol and 2 μM ketoprofen). Samples were centrifuged at 3,220 g for 40 minutes. Aliquot of 90 μL of the supernatant was mixed with 90 μL of ultra-pure H2O and then was used for LC-MS/MS analysis.
(§5) All calculations were carried out using Microsoft Excel. Peak area ratios of test compound to internal standard (listed in the below table) were determined from extracted ion chromatograms.
(§6) All calculations were carried out using Microsoft Excel. Peak areas were determined from extracted ion chromatograms. The slope value, k, was determined by linear regression of the natural logarithm of the remaining percentage of the parent drug vs. incubation time curve.
(§7) The in vitro half-life (in vitro t½) was determined from the slope value:
(§8) Conversion of the in vitro t½ (min) into the in vitro intrinsic clearance (in vitro CLint, in μL/min/mg proteins) was done using the following equation (mean of duplicate determinations):

[3] = in vitro; settings: rat, microsomes
Method: as §1, §2, §3, §4, §5, §6, §7, §8

[4] = in vitro; settings: mouse, microsomes
Method: as §1, §2, §3, §4, §5, §6, §7, §8

[5] = Remaining Percentage after 60 min, human liver microsomes, with cofactors

In the case of `CC(C)N(CCc1c[nH]c2cccc(O)c12)C(C)C` [Compound 7], the “RFU@10 μM” value [1] is reported as 74 RFU.
With `CN(C)CCc1c[nH]c2cccc(OC(=O)CCCC(=O)Oc3cccc4[nH]cc(CCN(C)C)c34)c12` [Compound I-24, Bis(3-(2-(dimethylamino)ethyl)-1H-indol-4-yl) glutarate] the “RFU@10 μM” value [1] was 169 RFU, the half-life at 2 µM [2] was 4.94 min and the microsomal CLint at 2 µM [2] was 281 µL/min/mg. For the same compound, the remaining at 1 h, 2 µM [2, 5] was 0%, the remaining at 1 h, 2 µM ([2]; Remaining Percentage after 60 min, human liver microsomes, without cofactors) was 1.08% and the half-life at 2 µM [3] was < 4.51 min. The microsomal CLint at 2 µM [3] was > 307 µL/min/mg, the remaining at 1 h, 2 µM [3] was 0% and the half-life at 2 µM [4] was < 4.51 min. The microsomal CLint at 2 µM [4] was > 307 µL/min/mg and the remaining at 1 h, 2 µM [4] was 0%.
With `CC(C)N(CCc1c[nH]c2cccc(OC(=O)CCCC(=O)Oc3cccc4[nH]cc(CCN(C(C)C)C(C)C)c34)c12)C(C)C` [Compound I-37, Bis(3-(2-(diisopropylamino)ethyl)-1H-indol-4-yl) glutarate dihydrochloride] the “RFU@10 μM” value [1] was 62 RFU, the half-life at 2 µM [2] was < 4.51 min and the microsomal CLint at 2 µM [2] was > 307 µL/min/mg. The remaining at 1 h, 2 µM [2] was 0%, the half-life at 2 µM [3] was < 4.51 min and the microsomal CLint at 2 µM [3] was > 307 µL/min/mg. The remaining at 1 h, 2 µM [3] was 0%, the half-life at 2 µM [4] was < 4.51 min and the microsomal CLint at 2 µM [4] was > 307 µL/min/mg. The remaining at 1 h, 2 µM [4] was 0%.
In the case of `CN(C)CCc1c[nH]c2cccc(O)c12` [Psilocin, 4-hydroxy-N,N-dimethyltryptamine, reference compound], the “RFU@10 μM” value [1] is reported as 140 RFU, the remaining at 1 h, 2 µM [2, 5] is reported as 70.2% and the remaining at 1 h, 2 µM [3] is reported as 62.7%. For the same compound, the remaining at 1 h, 2 µM [4] was 96.9%.
With `CN(C)CCc1c[nH]c2cccc(OP(=O)(O)O)c12` [Psilocybin] the “RFU@10 μM” value [1] was 143 RFU.
